A value given as a limit tells only on which side of the number the result lay.

The test deals with T1, hSOS1 (hSOS1-mediated loading of hK-RasG12C-GDP) (Homo sapiens, UniProt Q07889).
T1 construct: hSOS1 (amino acid 564-1049); made in house; host or cells: E. coli BL21 (DE3)
T1 sequence (Q07889 with tags, fused parts or gaps): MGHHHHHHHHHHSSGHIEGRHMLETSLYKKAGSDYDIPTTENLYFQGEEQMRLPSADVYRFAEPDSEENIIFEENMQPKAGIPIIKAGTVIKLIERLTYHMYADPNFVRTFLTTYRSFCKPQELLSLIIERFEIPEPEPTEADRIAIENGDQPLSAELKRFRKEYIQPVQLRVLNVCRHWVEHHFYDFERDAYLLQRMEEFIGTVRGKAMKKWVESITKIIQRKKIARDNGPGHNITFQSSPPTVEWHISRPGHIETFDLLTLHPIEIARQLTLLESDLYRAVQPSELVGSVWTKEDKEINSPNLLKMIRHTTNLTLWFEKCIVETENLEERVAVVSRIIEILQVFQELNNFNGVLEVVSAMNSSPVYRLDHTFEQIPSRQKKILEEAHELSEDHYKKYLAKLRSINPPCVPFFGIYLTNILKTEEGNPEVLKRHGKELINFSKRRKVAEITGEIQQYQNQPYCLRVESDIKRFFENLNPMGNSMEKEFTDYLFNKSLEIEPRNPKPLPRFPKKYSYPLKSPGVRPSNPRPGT
Description: Biochemical Assay 3: hK-RasG12C activation assay by hSOS1 (loading with fluorescent GTP analog, HTRF). The conditions noted are these: no GTP. The source says: Biochemical Assay 3: hK-RasG12C Activation Assay by hSOS1
K-Ras is a small GTPase that can bind GDP and GTP. The guanine nucleotide exchange factor SOS1 catalyzes the activation of K-Ras by promoting the exchange of GDP to GTP. SOS1 binds to K-Ras-GDP thereby opening the GDP-binding pocket to facilitate GDP release. Rebinding of excess nucleotide leads to dissociation of the K-Ras-SOS1 intermediate complex leaving K-Ras loaded with the nucleotide.
This assay quantifies human SOS1-(hSOS1-)mediated loading of human K-Ras^G12C-GDP (hK-RasG12C-GDP) with a fluorescent GTP-analog. Detection of successful loading is achieved by measuring homogenous time-resolved fluorescence resonance energy transfer (HTRF) from antiGST-Terbium (FRET donor) bound to GST-hK-RasG12C (see below) to the loaded fluorescent GTP analog (FRET-acceptor).
The fluorescent GTP-analog EDA-GTP-Dy647P1 (2′/3′-O-(2-Aminoethyl-carbamoyl)-guanosine-5′-triphosphate labelled with Dy647P1 (Dyomics GmbH, Germany)) was synthesized by Jena Biosciences GmbH (Germany) and supplied as a 1 mM aqueous solution.
The assay buffer contained 10 mM HEPES pH 7.4 (Applichem), 150 mM NaCl (Sigma), 5 mM MgCl2 (Sigma), 1 mM DTT (Thermofisher), 0.05% BSA Fraction V, pH 7.0, (ICN Biomedicals), 0.0025% (v/v) Igepal (Sigma).
Concentrations of protein batches used were optimized to be within the linear range of the HTRF signal. A hRas working solution was prepared in assay buffer containing typically 100 nM GST-hK-RasG12C and 2 nM antiGST-Tb (Cisbio, France). A hSOS1 working solution was prepared in assay buffer containing typically 20 nM hSOS1 and 200 nM EDA-GTP-Dy647P1. An inhibitor control solution was prepared in assay buffer containing 200 nM EDA-GTP-Dy647P1 without hSOS1.
Fifty nl of a 100-fold concentrated solution of the test compound in DMSO were transferred into a black microtiter test plate (384 or 1536, Greiner Bio-One, Germany) For this, either a Hummingbird liquid handler (Digilab, Mass., USA) or an Echo acoustic system (Labcyte, Calif., USA) was used.
All steps of the assay were performed at 20° C. A volume of 2.5 μl of the hRas working solution was added to all wells of the test plate using a Multidrop dispenser (Thermo Labsystems). After 10 min. preincubation, 2.5 μl of the hSOS1 working solution were added to all wells except for those wells at the side of the test plate that were subsequently filled with 2.5 μl of the inhibitor control solution. After […] incubation the fluorescence was measured with a Pherastar (BMG, Germany) using the HTRF module (excitation 337 nm, emission 1: 620 nm, emission 2:665 nm).
IC50 values were calculated by 4-Parameter fitting using a commercial software package (Genedata Screener, Switzerland).
Regarding `Cc1nc(N[C@H](C)c2cccc(Br)c2)c2cc(F)ncc2n1` [Example 34, N-[(1R)-1-(3-bromophenyl)ethyl]-6-fluoro-2-methylpyrido[3,4-d]pyrimidin-4-amine], the IC50 was > 20000 nM.

In the case of `Cc1nc(NC(C)c2ccc(Br)s2)c2cc(F)ncc2n1` (centres unmarked) [Example 35], the IC50 is > 20000 nM. Turning to `CNCc1ccccc1-c1ccc(C(C)Nc2nc(C)nc3cnc(F)cc23)s1` (centres unmarked) [Example 36, 6-fluoro-2-methyl-N-[1-(5-{2-[(methylamino)methyl]phenyl}thiophen-2-yl)ethyl]pyrido[3,4-d]pyrimidin-4-amine], the IC50 is > 20000 nM. The same measure for `CNCc1ccccc1-c1ccc(C(C)Nc2nc(C)nc3cnc(Oc4ccc(N5CCCC5=O)cc4)cc23)s1` (centres unmarked) [Example 38, 1-{4-[(2-methyl-4-{[1-(5-{2-[(methylamino)methyl]phenyl}thiophen-2-yl)ethyl]amino}pyrido[3,4-d]pyrimidin-6-yl)oxy]phenyl}pyrrolidin-2-one]: 269 nM; for `Cc1nc(N[C@H](C)c2cccc(Br)c2)c2cc(NCCN3CCOCC3)ncc2n1` [Example 39]: 1640 nM. As to `Cc1nc(N[C@H](C)c2cccc(Br)c2)c2cc(Oc3cccc(O)c3)ncc2n1` [Example 40, 3-[(4-{[(1R)-1-(3-bromophenyl)ethyl]amino}-2-methylpyrido[3,4-d]pyrimidin-6-yl)oxy]phenol], the IC50 was > 20000 nM. The value for `Cc1nc(N[C@H](C)c2cccc(Br)c2)c2cc(Oc3cccc(C4=NCCN4C)c3)ncc2n1` [Example 41, N-[(1R)-1-(3-bromophenyl)ethyl]-2-methyl-6-[3-(1-methyl-4,5-dihydro-1H-imidazol-2-yl)phenoxy]pyrido[3,4-d]pyrimidin-4-amine] was 3880 nM; that for `Cc1nc(N[C@H](C)c2cccc(Br)c2)c2cc(N3CCN(Cc4cccnc4)CC3)ncc2n1` [Example 43, N-[(1R)-1-(3-bromophenyl)ethyl]-2-methyl-6-[4-(pyridin-3-ylmethyl)piperazin-1-yl]pyrido[3,4-d]pyrimidin-4-amine] was 446 nM; that for `CC(=O)NCCNc1cc2c(N[C@H](C)c3cccc(Br)c3)nc(C)nc2cn1` [Example 44, N-{2-[(4-{[(1R)-1-(3-bromophenyl)ethyl]amino}-2-methylpyrido[3,4-d]pyrimidin-6-yl)amino]ethyl}acetamide] was 1640 nM.

The compound `Cc1nc(N[C@H](C)c2cccc(Br)c2)c2cc(N3CCNC(=O)C3)ncc2n1` [Example 45] registered an IC50 of 459 nM. The same measure for `Cc1nc(N[C@H](C)c2cccc(Br)c2)c2cc(NC3CCOCC3)ncc2n1` [Example 46]: 12800 nM; for `Cc1nc(NC(C)c2ccc(-c3ccccc3CN(C)C)s2)c2cc(NCCN3CCOCC3)ncc2n1` (centres unmarked) [Example 48]: 114 nM; for `Cc1nc(N[C@H](C)c2cccc(Br)c2)c2cc(NCCn3cccn3)ncc2n1` [Example 49, N4-[(1R)-1-(3-bromophenl)pethyl]-2-methyl-N6-[2-(1H-pyrazol-1-yl)ethyl]pyrido[3,4-d]pyrimidine-4,6-diamine]: 6990 nM.

Consider `CC(=O)NCCNc1cc2c(NC(C)c3ccc(-c4ccccc4CN(C)C)s3)nc(C)nc2cn1` (centres unmarked) [Example 51, N-{2-[(4-{[1-(5-{2-[(dimethylamino)methyl]phenyl}thiophen-2-yl)ethyl]amino}-2-methylpyrido[3,4-d]pyrimidin-6-yl)amino]ethyl}acetamide], for which half-maximal inhibition (IC50) required 89.5 nM.

Regarding `Cc1nc(NC(C)c2ccc(-c3ccccc3CN(C)C)s2)c2cc(Oc3cccc(O)c3)ncc2n1` (centres unmarked) [Example 52, 3-[(4-{[1-(5-{2-[(dimethylamino)methyl]phenyl}thiophen-2-yl)ethyl]amino}-2-methylpyrido[3,4-d]pyrimidin-6-yl)oxy]phenol], 532 nM corresponded to half-maximal inhibition (IC50). The same measure for `Cc1nc(NC(C)c2ccc(-c3ccccc3CN(C)C)s2)c2cc(NC3CCOCC3)ncc2n1` (centres unmarked) [Example 53, N4-[1-(5-{2-[(dimethylamino)methyl]phenyl}-2-thienyl)ethyl]-2-methyl-N6-(tetrahydro-2H-pyran-4-yl)pyrido[3,4-d]pyrimidine-4,6-diamine]: 239 nM; for `Cc1nc(NC(C)c2ccc(-c3ccccc3CN(C)C)s2)c2cc(NCCn3cccn3)ncc2n1` (centres unmarked) [Example 54, N4-[1-(5-{2-[(dimethylamino)methyl]phenyl}-2-thienyl)ethyl]-2-methyl-N6-[2-(1H-pyrazol-1-yl)ethyl]pyrido[3,4-d]pyrimidine-4,6-diamine]: 189 nM. The same measure for `Cc1nc(NC(C)c2ccc(-c3ccccc3CN(C)C)s2)c2cc(NCCn3ccnc3)ncc2n1` (centres unmarked) [Example 56, N4-[1-(5-{2-[(dimethylamino)methyl]phenyl}-2-thienyl)ethyl]-N6-[2-(1H-imidazol-1-yl)ethyl]-2-methylpyrido[3,4-d]pyrimidine-4,6-diamine]: 89.5 nM; for `COc1cc2c(N[C@H](C)c3cccc(Br)c3)nc(C)nc2cn1` [Example 57, N-[(1R)-1-(3-bromophenyl)ethyl]-6-methoxy-2-methylpyrido[3,4-d]pyrimidin-4-amine]: 1780 nM; for `Cc1nc(NC(C)c2ccc(-c3ccccc3CN(C)C)s2)c2cc(Oc3cccc(C4=NCCN4C)c3)ncc2n1` (centres unmarked) [Example 58, N-[1-(5-{2-[(dimethylamino)methyl]phenyl}thiophen-2-yl)ethyl]-2-methyl-6-[3-(1-methyl-4,5-dihydro-1H-imidazol-2-yl)phenoxy]pyrido[3,4-d]pyrimidin-4-amine]: 155 nM.

With `CSc1cc2c(NC(C)c3ccc(-c4ccccc4CN(C)C)s3)nc(C)nc2cn1` (centres unmarked) [Example 59, N-[1-(5-{2-[(dimethylamino)methyl]phenyl}thiophen-2-yl)ethyl]-2-methyl-6-(methylsulfanyl)pyrido[3,4-d]pyrimidin-4-amine], the IC50 was 67.7 nM. The value for `CC(=O)NCCOc1cc2c(N[C@H](C)c3cccc(Br)c3)nc(C)nc2cn1` [Example 62, N-{2-[(4-{[(1R)-1-(3-bromophenyl)ethyl]amino}-2-methylpyrido[3,4-d]pyrimidin-6-yl)oxy]ethyl}acetamide] was 735 nM. `CCOc1cc2c(NC(C)c3ccc(-c4ccccc4CN(C)C)s3)nc(C)nc2cn1` (centres unmarked) [Example 63, N-[1-(5-{2-[(dimethylamino)methyl]phenyl}thiophen-2-yl)ethyl]-6-ethoxy-2-methylpyrido[3,4-d]pyrimidin-4-amine] showed an IC50 of 61.1 nM.

In turn, `COc1cc2c(NC(C)c3ccc(-c4ccccc4CN(C)C)s3)nc(C)nc2cn1` (centres unmarked) [Example 64, N-[1-(5-{2-[(dimethylamino)methyl]phenyl}thiophen-2-yl)ethyl]-6-methoxy-2-methylpyrido[3,4-d]pyrimidin-4-amine] yielded an IC50 of 80.3 nM.

On to `Cc1nc(NC(C)c2ccc(-c3ccccc3CN(C)C)s2)c2cc(OC3CCS(=O)(=O)CC3)ncc2n1` (centres unmarked) [Example 67, N-[1-(5-{2-[(dimethylamino)methyl]phenyl}thiophen-2-yl)ethyl]-6-[(1,1-dioxidotetrahydro-2H-thiopyran-4-yl)oxy]-2-methylpyrido[3,4-d]pyrimidin-4-amine], for which the IC50 is 63.3 nM. The value for `Cc1nc(NC(C)c2ccc(-c3ccccc3CO)s2)c2cc(F)ncc2n1` (centres unmarked) [Example 68, [2-(5-{1-[(6-fluoro-2-methylpyrido[3,4-d]pyrimidin-4-yl)amino]ethyl}thiophen-2-yl)phenyl]methanol] was > 20000 nM.

These data come from US20220274979A1 (Bayer Pharma Aktiengesellschaft, priority 2018, published 2022).
